The term melting point denotes the temperature of the solid-liquid transition. In the case of `CC1(C)O[C@]23C[C@H]1CC[C@]2(C)CCC=C3Cc1ccccc1` [Example 7, (1R,6S,9R)6,10,10-Trimethyl-2-benzyl-11-oxatricyclo[7.2.1.0^1,6]dodec-2-ene], the melting point lay in the range of 49 to 50 °C.

With `CC(=O)CCC1=CCC[C@@]2(C)CC[C@@H]3C[C@]12OC3(C)C` [Example 29, (1R,6S,9R)6,10,10-Trimethyl-2-(3-oxobutyl)-11-oxatricyclo[7.2.1.0^1,6]dodec-2-ene], the melting point fell in the range of 59 to 62 °C.

`CCCC[C@H]1C(=O)CC[C@@]2(C)CC[C@@H]3C[C@]12OC3(C)C` [Example 23, (1S,2R,6R,9R)6,10,10-Trimethyl-2-butyl-11-oxatricyclo[7.2.1.0^1,6]dodecan-3-one] displayed a melting point of 64 to 66 °C.

As for `CC(C)CCC1=CCC[C@@]2(C)CC[C@@H]3C[C@]12OC3(C)C` [Example 5, (1R,6S,9R)6,10,10-Trimethyl-2-isopentyl-11-oxatricyclo[7.2.1.0^1,6]dodec-2-ene], the melting point fell in the range of 38 to 39 °C.

Turning to `CC1(C)O[C@]23C[C@H]1CC[C@]2(C)CCC=C3Cc1ccc(F)cc1` [Example 8, (1R,6S,9R)6,10,10-Trimethyl-2-(4-flurobenzyl)-11-oxatricyclo[7.2.1.0^1,6]dodec-2-ene], the melting point is 131 to 133 °C.

In turn, `CCCC[C@]1(O)CCC[C@@]2(C)CC[C@@H]3C[C@@]21OC3(C)C` [Example 16, (1R,2S,6S,9R)6,10,10-Trimethyl-2-butyl-2-hydroxy-11-oxatricyclo[7.2.1.0^1,6]dodecane] showed a melting point of 70 to 72 °C.

`CC1(C)O[C@]23C[C@H]1CC[C@]2(C)CC[C@](C)(O)C3` [Example 24, (1S,3S,6R,9R)3,6,10,10-Tetramethyl-3-hydoxy-11-oxatricyclo[7.2.1.0^1,6]dodecane] yielded a melting point of 68 to 70 °C.

Compound `CC1(C)O[C@]23C[C@H]1CC[C@]2(C)CCC=C3Cc1ccc(Cl)cc1` [Example 10, (1R,6S,9R)6,10,10-Trimethyl-2-(4-chlorobenzyl)-11-oxatricyclo[7.2.1.0^1,6]dodec-2-ene] registered a melting point of 87 to 88 °C.

As to `CCCC[C@@]1(O)CCC[C@@]2(C)CC[C@@H]3C[C@@]21OC3(C)C` [Example 21, (1R,2R,6S,9R)6,10,10-Trimethyl-2-butyl-2-hydroxy-11-oxatricyclo[7.2.1.0^1,6]dodecane], the melting point fell in the range of 90 to 92 °C.

Take `CC1(C)O[C@]23C[C@H]1CC[C@]2(C)CCC=C3CCO` [Example 11, (1R,6S,9R)6,10,10-Trimethyl-2-(2-hydroxyethyl)-11-oxatricyclo[7.2.1.0^1,6]dodec-2-ene]: the melting point lay within 34 to 36 °C.

For `CCCC[C@H]1[C@@H](O)CC[C@@]2(C)CC[C@@H]3C[C@]12OC3(C)C` [Example 22, (1S,2S,3S,6R,9R)6,10,10-Trimethyl-2-butyl-3-hydroxy-11-oxatricyclo[7.2.1.0^1,6]dodecane], the melting point lay in the range of 47 to 48 °C.

`CC1=C[C@@]23C[C@@H](CC[C@]2(C)CC1)C(C)(C)O3` [Example 32, (1S,6R,9R)3,6,10,10-Tetramethyl-11-oxatricyclo[7.2.1.0^1,6]dodec-2-ene] displayed a melting point of 38 to 39 °C.

The values are drawn from patent publication US6486201B1, “Agarofuan derivatives, their preparation, pharmaceutical composition containing them and their use as medicine” (Institute of Materia Medica, Chinese Academy of Medical …, priority 1998, dated 2002).
